Source: patent US12134604B1, “1-[4,5-bis(4-chlorophenyl)-1-hexyl-1H-imidazol-2-yl]-2-naphthol as an antimicrobial compound” (KING FAISAL UNIVERSITY, priority 2023, dated 2024)

Experiments:
Format in all cases: cell-based
Settings in all cases: after 10, 20, 40 and 60 minutes at all dilutions 1:100, 1:200, 1:400, 1:800 (summary in words)
Candida albicans = assay: Antimicrobial (antifungal) screening by agar dilution, Candida albicans
Experimental: (§1) The antimicrobial properties of the 1-[4,5-bis(4-chlorophenyl)-1-hexyl-1H-imidazol-2-yl]-2-naphthol was studied by the method of agar dilution. Test solutions of each compound was prepared in concentration of 1% using dimethylformamide as a solvent then they are diluted in physiological solution to obtain the final experimental dilutions 1:100, 1:200, 1:400, 1:800. The effect of these substances are compared with furacillin in a controlled study. The testing microbes used were gram positive bacteria Staphylococcus aureus, gram negative bacteria Pseudomonas aeruginosa and Escherichia coli and Candida albicans fungi were taken. The experiments used for this survey were meat-pentonlu agar (EPA) for cultivation of bacteria and Saburo environment for fungi. Each experiment used 1 ml of test solution on each plate 500 min. Add 2 drops of emulsified with microbes feel. All experimental samples were taken from the agar after 10, 20, 40, 60 minutes in the environment on the basis of Patrk planted. Bacteria were cultivated at a temperature of 37° C. for 1 day and the mushroom was kept in a thermostat for […] at a temperature of 28° C. in the. Then results were checked.

Escherichia coli = assay: Antimicrobial screening by agar dilution, Escherichia coli
Experimental: as §1

Pseudomonas aeruginosa = assay: Antimicrobial screening by agar dilution, Pseudomonas aeruginosa
Experimental: as §1

Staphylococcus aureus = assay: Antimicrobial screening by agar dilution, Staphylococcus aureus
Experimental: as §1

Measured: inhibition activity

CCCCCCn1c(-c2c(O)ccc3ccccc23)nc(-c2ccc(Cl)cc2)c1-c1ccc(Cl)cc1 [1-[4,5-bis(4-chlorophenyl)-1-hexyl-1H-imidazol-2-yl]-2-naphthol]
highest inhibition activity: all assays above
